Experimental data taken from patent US9828344B2, “Inhibitors of the notch signaling pathway and secretion for use in medicine” (Leibniz-Institut für Altersforschung Fritz-Lipmann-Institut …, priority 2012, dated 2017).

Legend:
[1] = system: ER; experiment: ER tubule-to-sheet live-cell imaging in COS cells (prlss-KDEL-mRFP); format: cell-based; conditions: 10 iM, 2 h
Protocol: FIG. 7: FLI-06 induces ER sheet formation. A) COS cells transfected with prlss-KDEL-mRFP were incubated with 10 μM FLI-06 for indicated times and imaged by live-cell microscopy. The inserts are magnifications of the boxed areas. B) Images from cells treated as in A) were scored for the percentage of cells that lost most of their ER-tubules. For each time point 40-60 cells were counted. Data represent mean percentages, error bars SEM, n=3 independent experiments.
FIG. 16: Only ER exit inhibitors convert ER tubules to sheets. COS cells plated on LabTek chambered coverslips were transiently transfected with the ER-marker prlss-KDEL-mRFP, incubated the next day for 2 h with 10 iM of indicated compounds and imaged by live-cell microscopy. […] FLI-06+CHX, cells were additionally incubated in 40 iM cycloheximide. Nife, nifedipine; nimo, nimodipine. Numbers refer to numbering in FIG. 5a.
We noted a morphological change of the ER upon FLI-06 incubation that was difficult to capture in fixed cells. Live-cell imaging was therefore performed in COS cells transfected with the ER marker prlss-KDEL-mRFP (supp. Ref 3) and FLI-06 was added for 120 min (FIG. 7a). After 120 min almost all cells had no detectable ER-tubules anymore and instead were filled with large sheet-like structures. […] To test whether the morphological change is related to the inhibition of ER exit, next our set of FLI-06 derivatives was tested. […] Rather, the ER-sheets are indicative for structural changes, maybe initiated within ERES, that inhibit ER exit.

[2] = system: NotchΔE-EGFP; experiment: Fluorescence microscopy of reporter localization in HeLa NotchΔE-EGFP cells; format: cell-based; conditions: 10 μM compound, 24 h
Protocol: FIG. 10: Phenotypes of Notch inhibitors are fully reversible. HeLa NotchΔE-EGFP cells plated in LabTek coverglass were incubated for 18 h with 10 iM of indicated compounds, washed and incubated for indicated times in cell culture medium. Cells were imaged by live-microscopy. […] Scalebar, 10 im.
For a detailed analysis of subcelluar distribution of NotchΔE/NICD the resolution of the HCS images was not sufficient. Therefore, the reporter cell line was plated on coverslips and incubated with 10 μM of individual compounds from the final hit list. After 24 h the localization of NotchΔE-EGFP/NICD-EGFP was determined by fluorescence microscopy. […] (FIG. 8).
Immunofluorescence stainings were made using standard procedures^55. Imaging was performed on a Zeiss Axiovert200 or an Axio Imager, using 63× 1.4NA objectives and Zeiss Axiovision software. For live-imaging cells were plated on Lab-Tek chambered coverglass (Thermo-Fisher). Images were assembled and processed using Adobe Photoshop. For displaying weakly stained ER-tubules/sheets non-linear changes in gamma-settings were used.

[3] = system: NotchΔE-EGFP; experiment: Western blot of NotchΔE-EGFP processing in HeLa NotchΔE-EGFP lysates; format: cell-based; conditions: 10 μM, 18 h
Protocol: FIG. 2: Selected compounds from final hit list show distinct phenotypes. Hela NotchΔE-EGFP cells were incubated with compounds (10 μM) for 18 h, fixed and analyzed by fluorescence microscopy (a) or lysed, separated by SDS-PAGE, blotted and probed with antibodies against GFP and NICD (b). Tubulin served as loading control. c) Quantitation of NotchΔE-EGFP accumulation and NICD production from 3-4 experiments as shown in (b). […] Arrows, plasma membrane; scalebar, 10 μm.
Next, lysates of HeLa NotchΔE-EGFP cells treated with compounds were analyzed for processing of NotchΔE-EGFP by Western blot using antibodies specific for EGFP and NICD (FIG. 2b, c). The GFP antibody detected both the uncleaved reporter NotchΔE-EGFP and the γ-secretase product NICD-EGFP, whereas the NICD-specific antibody specifically detected cleaved NICD-EGFP. […] The observed effects were not cell type specific, as they were also apparent in U2OS cells stably expressing NotchΔE-EGFP (FIG. 9).

[4] = system: APP; experiment: APP processing in HEK293 cells stably expressing APPswe; format: cell-based; conditions: 10 μM, 16 h
Protocol: (§1) FIG. 3: Effect of compounds on NotchΔE-EGFP, APP and Klotho trafficking and processing. a) HEK293 stably expressing APPswe or Klotho (KI) were incubated with DAPT or compounds (10 μM) for 16 h. Media were collected, cells lysed and both assayed by Western blotting using indicated antibodies. m, mature; im, immature; s, shedded ectodomain; CTF, C-terminal fragment. b) Membranes from HeLa-NotchΔE-EGFP and APPswe cells were isolated and subjected to a γ-secretase in vitro assay in the presence of DAPT or compounds as indicated. NICD and AICD were detected by Western Blotting using antibodies against the C-terminus of APP (top) or antibodies specific for NICD (bottom). c) Quantitation from 5 independent experiments.
To test if the compounds that affected NotchΔE-EGFP processing also affected APP processing, HEK293 cells were used that stably expressed APPswe, a mutated APP that yields robust amounts of Aβ^18. […] All other compounds had no effect on APPCTF or Aβ.
APP, APPs, APPCTF and Aβ detection was as described before^54 using antibodies 22C11 for APP and APPs, 6687 for APPCTF and 3552 and 2D8 for Aβ. Klotho was detected as described in Bloch et al.^20. Chemoluminescence was quantified on a LAS-4000 (Fuji) with MultiGauge software.

[5] = system: γ-secretase; experiment: In vitro γ-secretase assay with isolated membranes; format: biochemical; conditions: 37° C.
Protocol: as §1
To test whether FLI-06 affected other membrane proteins, Klotho, a type I protein processed like APP and Notch^20, was analyzed. […] To analyze γ-secretase activity, in vitro assays using isolated membranes were performed (FIG. 3b, c). Production of NICD-EGFP and AICD (APP intracellular domain) were assayed. Both were produced in vitro at 37° C. but not at 4° C., and their production was inhibited by DAPT.
For assaying AICD formation, membranes of HEK293 cells stably expressing APP with the Swedish mutation were isolated and incubated for 4 h at 37° C. according to Sastre et al.^52. For assaying NICD formation, membranes from HeLa NotchΔE-EGFP cells were mixed with membranes from HeLa NotchΔE-EGFP cells that were pre-treated with 10 μM DAPT overnight to enrich substrate. After incubation samples were loaded onto either 8% SDS-PA gels (NICD) or 10-20% Tris-Tricine gels (AICD), blotted and probed with cleaved-Notch antibody or antibody 6687 against APP C-terminus^53. Chemoluminescence was quantified on a LAS-4000 (Fuji) with MultiGauge software.

[6] = system: endogenous Notch signaling; experiment: Luciferase Notch reporter assay in C2C12 cells transfected with Delta; format: cell-based; conditions: 10 μM, 16 h
Protocol: (§2) Cells were incubated with DAPT or 10 μM of the indicated compounds (50 μM in case of FLI-15 and -20) and after 16 h a luciferase assay was performed. […] Changes in relative gene expression levels (fold change) relative to the expression levels in DMSO controls are represented as the mean+/−SD, asterisks indicate p<0.01. Each measurement was taken from two independent samples. Each reaction was measured in triplicate. Changes in the relative expression of ngn1 were standardized to the expression of the housekeeping gene ef1a at 20 hpf. c) ISH with riboprobes specific for ngn1 was performed on dechorionated stage 4 hpf zebrafish embryos. Anterior is to the left, dorsal to the top. Magnifications of the somite region (small box) are shown. Arrows indicate larger ngn1 clusters or stronger ngn1 staining. s, sensory neurons; i, intermediate neurons; m, motor neurons.
(§3) We wanted to test whether the results obtained with the NotchΔE-EGFP construct are relevant for endogenous Notch signaling. Therefore we made use of C2C12 cells, a well established model for muscle development that expresses endogenous Notch^21,22. After stimulating endogenous Notch signaling by transfecting the Notch ligand Delta, Notch activity was measured by a luciferase assay using a Notch reporter^15 in the presence or absence of compounds (FIG. 4a). […] Next, we tested whether selected compounds would affect Notch signaling in vivo. […] Compounds were added to dechorionated stage 4 hpf zebrafish embryos and the effects were analyzed after 24 h by morphological inspection of somite formation. Phenotypes were ranked to four categories, normal somites, mild somite defects, strong somite defects and developmental delay. […] As an additional parameter we decided to analyze Notch-dependent genes involved in neurogenesis. Primary neurogenesis in zebrafish involves the selection of neuroblasts (repressed by Notch) from proneural clusters (Notch expressing cells), a process regulated in a negative manner by Notch-dependent lateral inhibition^25. Accordingly, neuroblast cells that express the neuronal specification factor neurogenin (ngn1^26) became more abundant when Notch signaling was impaired, for instance upon DAPT treatment^23,27. qPCR analyses on mRNA extracted from equivalent sets of embryos was performed for ngn1 expression (FIG. 4b). […] To confirm the data obtained by qPCR, whole-mount in-situ hybridizations (ISH) using an ngn1 specific riboprobe were performed (FIG. 4c, FIG. 11c). […] Taken together, FLI-06, -14, -15, -19 and -20 inhibited endogenous Notch signaling in vitro and in vivo, corroborating the NotchΔE-EGFP reporter data.
Endogenous Notch signaling in C2C12 was determined by a luciferase assay using a 12xCSL-luciferase reporter and transfected Delta as described before^15.

[7] = system: zebrafish embryos; experiment: Zebrafish embryo Notch phenotype (somites, ngn1 qPCR and ISH); format: in vivo, zebrafish Danio rerio; conditions: 50 μM
Protocol: as §2
FIG. 11: Selected compounds affect somite formation and neurogenesis in vivo in zebrafish embryos. a) Lateral view of typical representative phenotypes induced by DAPT treatment, which were used as a reference to score the effect of compounds. […] Images were taken at 24 hpf. b) Pie chart showing the cumulative relative frequency of the phenotypes in a) at 24 hpf in embryos treated with 20, 50 and 100 iM of the indicated compounds. c) ISH with riboprobes specific for ngn1 was performed on dechorionated stage 4 hpf zebrafish embryos. Anterior is to the left, dorsal to the top. Magnifications of the developing head (box) are shown. Arrows indicate larger ngn1 clusters or stronger ngn1 staining. t, telencephalon; p, protectum; h, hindbrain; d, diencephalon; tg, tegmentum; vrc, ventral rostral cluster.
as §3
Embryos were obtained from natural spawning of wild-type TüAB strain adults, raised and staged according to supp. Ref 14. DAPT and compounds were applied at 50 iM in E3 embryo medium to zebrafish embryos with chorions torn but not completely removed from sphere stage until the stage of analysis, according to ref 23. Control embryos were mock treated with the same concentration of DMSO dissolved in E3 embryo medium. […]

[8] = system: COPII vesicles; experiment: In vitro COPII budding assay with permeabilized cells; format: biochemical; conditions: no FLI-06 pretreatment of cells
[9] = system: NotchΔE-EGFP; experiment: cells; format: cell-based
Text: To identify novel regulatory factors involved in Notch trafficking/processing an image-based high content screen was set up. […] NotchΔE-EGFP is a direct substrate for γ-secretase at the PM, and under physiological conditions is proteolytically processed to NICD-EGFP that translocates into the nucleus (for scheme see FIG. 1b), resulting in a strong nuclear EGFP-staining in steady state^15 (FIG. 1d). […] Importantly, changes in subcellular localization of the reporter are amenable to quantitation by automated microscopy^15. Accordingly, reporter fluorescence was determined in the nucleus (nuc) and in a ring around the nucleus (enuc), and the ratio enuc/nuc was evaluated (schematized in FIG. 1c). Thereafter, the assay design was functionally validated. […] The assay also reliably detected trafficking defects in the secretory pathway. […] Taken together, the assay was validated for reliably detecting concentration and time dependent changes in trafficking and processing of the Notch reporter.
Cells were seeded in 96-well plates at a density of 5000 cells/well in 100 μl medium. The next day, 100 μl medium containing the respective test compounds was added. Cells were incubated for 16 h, fixed and processed for automated microscopy. For the putative gamma-secretase inhibitors the enuc intensity was divided by the DAPT control and for the trafficking inhibitors normalized percentage inhibition against DAPT/DMSO controls of log 2 transformed nuc/enuc ratios were calculated. Relative activity values were read into “R” (http://www.r-project.org/) and EC50 estimates were calculated using four-parameter log-logistic fit with the package “drc”^51.
Images were acquired on an ArrayScan VTi automated microscope (ThermoFisher) and numerical data were extracted with the Compartmental Analysis BioApplication of the bundled software suite. Compound screening raw data were collected at the FMP and data transformation was performed according to standard procedures (ref 17 and supp. Refs 6-7).

CC1=C(C(=O)OC2CCCCC2)C(c2ccccc2)C2=C(CC(C)(C)CC2=O)N1 (centres unmarked) [compound 5]
ER tubule-to-sheets phenotype [1]: elicited the tubule-to-sheets phenotype

CCCCCOC(=O)C1=C(C)NC2=C(C(=O)CC(C)(C)C2)C1c1ccc([N+](=O)[O-])cc1 (centres unmarked) [FLI-27]
ER tubule-to-sheets phenotype [1]: elicited the tubule-to-sheets phenotype

COc1ccc(C(=O)O)cc1Nc1nc2ccccc2nc1NS(=O)(=O)c1ccc(Cl)cc1 [FLI-16]
localization of NotchΔE-EGFP/NICD-EGFP [2]: did not alter the reporter localization | NotchΔE-EGFP processing [3]: no influence on NotchΔE-EGFP processing | APPs (shedded ectodomain) secretion [4]: reduced APPs secretion | NICD-EGFP and AICD production in isolated membranes [5]: did not affect in vitro γ-secretase activity | inhibition of endogenous Notch signaling [6]: strongly | ngn1 positive cell clusters along the spinal cord (ISH) ([7]; compared to DMSO-treated control embryos): reduced | ngn1 mRNA levels (qPCR) ([7]; relative to DMSO controls): did not induce significant changes

O=S(=O)(NCCNC/C=C/c1ccc(Br)cc1)c1cccc2cnccc12 [H89, reference compound]
COPII budding reaction, compound added directly to the assay [8]: completely blocked formation of COPII vesicles

CC1=C(C(=O)OC2CCCCCC2)C(c2ccc([N+](=O)[O-])cc2)C2=C(CC(C)(C)CC2=O)N1 (centres unmarked) [FLI-28]
activity relative to compound 1 (FLI-06) ([9]; enuc/nuc ratios in NotchΔE-EGFP cells): twice as active as compound 1 | ER tubule-to-sheets phenotype [1]: elicited the tubule-to-sheets phenotype

CC1=C(C(=O)OC2CCCCC2)C(c2ccccc2)C2=C(CC(C)(C)CC2=O)N1 (centres unmarked) [FLI-25]
activity in NotchΔE-EGFP cells (enuc/nuc ratios) ([9]; SAR and prior-art comparison, FIG. 5a/5b): inactive | COPII budding reaction, compound added directly to the assay [8]: neither 10 nor 100 μM of FLI-25 had an effect
